{
  "source": "paper PMC4753123",
  "about": "(Archives of biochemistry and biophysics, 2015)",
  "origin": "cited, not measured here",
  "target": "T1, Mtm1p (Saccharomyces cerevisiae, UniProt P53320)",
  "T1 sequence (P53320 1-366)": "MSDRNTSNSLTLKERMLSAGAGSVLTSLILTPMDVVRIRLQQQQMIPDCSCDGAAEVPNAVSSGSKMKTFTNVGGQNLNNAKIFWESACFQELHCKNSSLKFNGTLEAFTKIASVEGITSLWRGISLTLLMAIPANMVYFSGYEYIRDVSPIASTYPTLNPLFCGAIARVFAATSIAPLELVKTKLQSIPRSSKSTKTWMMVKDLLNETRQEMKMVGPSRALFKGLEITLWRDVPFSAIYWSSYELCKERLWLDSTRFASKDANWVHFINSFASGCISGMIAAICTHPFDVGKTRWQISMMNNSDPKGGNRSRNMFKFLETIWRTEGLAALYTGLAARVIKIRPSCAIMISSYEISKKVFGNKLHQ",
  "assay": "fluorescence titration",
  "type": "binding",
  "conditions": "purified recombinant protein",
  "data": [
    {"smiles": "Cc1ncc(COP(=O)(O)O)c(C=O)c1O", "note": "[PLP]", "values": [
      {"measurement": "Kd", "value": 0.6, "unit": "µM"}
    ]}
  ]
}
